According to patent US11180470B2, “Herbicidal pyrimidine compounds” (BASF SE, priority 2016, dated 2021):

system: AVEFA; experiment: greenhouse experiment, post-emergence treatment; assay type: in vivo, Avena fatua; conditions: post-emergence method, application rate 2000 g/ha, scale from 0 to 100
Text: (§1) The culture containers used were plastic flowerpots containing loamy sand with approximately 3.0% of humus as the substrate. The seeds of the test plants were sown separately for each species.
(§2) For the post-emergence treatment, the test plants were first grown to a height of 3 to 15 cm, depending on the plant habit, and only then treated with the active ingredients which had been suspended or emulsified in water. For this purpose, the test plants were either sown directly and grown in the same containers, or they were first grown separately as seedlings and transplanted into the test containers a few days prior to treatment.
(§3) Depending on the species, the plants were kept at 10-25° C. or 20-35° C., respectively.
(§4) The test period extended over 2 to 4 weeks. During this time, the plants were tended, and their response to the individual treatments was evaluated.
(§5) Evaluation was carried out using a scale from 0 to 100. 100 means no emergence of the plants, or complete destruction of at least the aerial moieties, and 0 means no damage, or normal course of growth. A good herbicidal activity is given at values of at least 70 and a very good herbicidal activity is given at values of at least 85.
(§6) The plants used in the greenhouse experiments were of the following species: […]

SMILES	herbicidal activity against AVEFA
COC(=O)c1nc(C2CC2)ncc1-c1ncc(F)cc1Br [Example 21]	very good (a very good herbicidal activity is given at values of at least 85)
COC(=O)c1nc(C2CC2)ncc1-c1cccnc1Br [Example 18]	very good (a very good herbicidal activity is given at values of at least 85)
O=C(O)c1nc(C2CC2)ncc1-c1ncc(F)cc1Br [Example 24]	very good (a very good herbicidal activity is given at values of at least 85)
O=C(O)c1nc(C2CC2)ncc1-c1cc(C(F)(F)F)ncc1Cl [Example 64]	very good (a very good herbicidal activity is given at values of at least 85)
O=C(O)c1nc(C2CC2)ncc1-c1ncccc1Br [Example 29]	very good (a very good herbicidal activity is given at values of at least 85)
O=C(O)c1nc(C2CC2)ncc1-c1nc(C(F)(F)F)ccc1F [Example 62]	very good (a very good herbicidal activity is given at values of at least 85)
O=C(O)c1nc(C2CC2)ncc1-c1ncccc1I [Example 39]	very good (a very good herbicidal activity is given at values of at least 85)
O=C(O)c1nc(C2CC2)ncc1-c1ccncc1Br [Example 38]	very good (a very good herbicidal activity is given at values of at least 85)

system: ECHCG; experiment: greenhouse experiment, pre-emergence treatment; assay type: in vivo, Echinocloa crus-galli; conditions: pre-emergence method, application rate 2000 g/ha, scale from 0 to 100
Text: (§7) The seeds of the test plants were sown separately for each species. For the pre-emergence treatment, the active ingredients, which had been suspended or emulsified in water, were applied directly after sowing by means of finely distributing nozzles. The containers were irrigated gently to promote germination and growth and subsequently covered with transparent plastic hoods until the plants had rooted. This cover caused uniform germination of the test plants, unless this had been impaired by the active ingredients. Depending on the species, the plants were kept at 10-25° C. or 20-35° C., respectively. The test period extended over 2 to 4 weeks. During this time, the plants were tended, and their response to the individual treatments was evaluated. Evaluation was carried out using a scale from 0 to 100. 100 means no emergence of the plants, or complete destruction of at least the aerial moieties, and 0 means no damage, or normal course of growth. A good herbicidal activity is given at values of at least 70 and a very good herbicidal activity is given at values of at least 85. The plants used in the greenhouse experiments were of the following species: [table]

SMILES	herbicidal activity against ECHCG
COC(=O)c1nc(C2CC2)ncc1-c1cnccc1Br [Example 32]	very good (a very good herbicidal activity is given at values of at least 85)
COC(=O)c1nc(C2CC2)ncc1-c1ncc(F)cc1Br [Example 21]	very good (a very good herbicidal activity is given at values of at least 85)
COC(=O)c1nc(C2CC2)ncc1-c1cccnc1Br [Example 18]	very good (a very good herbicidal activity is given at values of at least 85)
O=C(O)c1nc(C2CC2)ncc1-c1ncc(F)cc1Br [Example 24]	very good (a very good herbicidal activity is given at values of at least 85)
O=C(O)c1nc(C2CC2)ncc1-c1cc(C(F)(F)F)ncc1Cl [Example 64]	very good (a very good herbicidal activity is given at values of at least 85)
O=C(O)c1nc(C2CC2)ncc1-c1ncccc1Br [Example 29]	good (A good herbicidal activity is given at values of at least 70)
CCc1ncc(-c2ncccc2Br)c(C(=O)O)n1 [Example 49]	very good (a very good herbicidal activity is given at values of at least 85)
O=C(O)c1nc(C2CC2)ncc1-c1nc(C(F)(F)F)ccc1F [Example 62]	very good (a very good herbicidal activity is given at values of at least 85)
O=C(O)c1nc(C2CC2)ncc1-c1ncccc1I [Example 39]	very good (a very good herbicidal activity is given at values of at least 85)
O=C(O)c1nc(C2CC2)ncc1-c1ccncc1Br [Example 38]	very good (a very good herbicidal activity is given at values of at least 85)
Cc1ccsc1-c1cnc(C2CC2)nc1C(=O)O [Example 3]	very good (a very good herbicidal activity is given at values of at least 85)

system: AMARE; experiment: greenhouse experiment, post-emergence treatment; assay type: in vivo, Amaranthus retroflexus; conditions: post-emergence method, application rate 1000 g/ha, scale from 0 to 100
Text: as §1, §2, §3, §4, §5, §6

SMILES	herbicidal activity against AMARE
CCc1ncc(-c2ncc(F)cc2Br)c(C(=O)O)n1 [Example 54]	very good (a very good herbicidal activity is given at values of at least 85)

same assay, conditions: post-emergence method, application rate 2000 g/ha, scale from 0 to 100

SMILES	herbicidal activity against AMARE
COC(=O)c1nc(C2CC2)ncc1-c1cnccc1Br [Example 32]	very good (a very good herbicidal activity is given at values of at least 85)
COC(=O)c1nc(C2CC2)ncc1-c1cccnc1Br [Example 18]	very good (a very good herbicidal activity is given at values of at least 85)
O=C(O)c1nc(C2CC2)ncc1-c1ncc(F)cc1Br [Example 24]	very good (a very good herbicidal activity is given at values of at least 85)
O=C(O)c1nc(C2CC2)ncc1-c1ccncc1Br [Example 38]	very good (a very good herbicidal activity is given at values of at least 85)
O=Cc1ccoc1-c1cnc(C2CC2)nc1C(=O)O [Example 40]	very good (a very good herbicidal activity is given at values of at least 85)
Cc1ccsc1-c1cnc(C2CC2)nc1C(=O)O [Example 3]	very good (a very good herbicidal activity is given at values of at least 85)
COC(=O)c1nc(C2CC2)ncc1-c1occc1C(F)F [Example 17]	very good (a very good herbicidal activity is given at values of at least 85)
COC(=O)c1nc(OC)ncc1-c1ncccc1F [Example 46]	good (A good herbicidal activity is given at values of at least 70)

system: ALOMY; experiment: greenhouse experiment, post-emergence treatment; assay type: in vivo, Alopecurus myosuroides; conditions: post-emergence method, application rate 2000 g/ha, scale from 0 to 100
Text: as §1, §2, §3, §4, §5, §6

SMILES	herbicidal activity against ALOMY
COC(=O)c1nc(C2CC2)ncc1-c1ncc(F)cc1Br [Example 21]	very good (a very good herbicidal activity is given at values of at least 85)
O=C(O)c1nc(C2CC2)ncc1-c1cc(C(F)(F)F)ncc1Cl [Example 64]	very good (a very good herbicidal activity is given at values of at least 85)
O=C(O)c1nc(C2CC2)ncc1-c1ncccc1Br [Example 29]	very good (a very good herbicidal activity is given at values of at least 85)
O=C(O)c1nc(C2CC2)ncc1-c1nc(C(F)(F)F)ccc1F [Example 62]	very good (a very good herbicidal activity is given at values of at least 85)
O=C(O)c1nc(C2CC2)ncc1-c1ncccc1I [Example 39]	good (A good herbicidal activity is given at values of at least 70)
O=C(O)c1nc(C2CC2)ncc1-c1ccncc1Br [Example 38]	very good (a very good herbicidal activity is given at values of at least 85)

system: ECHCG; experiment: greenhouse experiment, post-emergence treatment; assay type: in vivo, Echinocloa crus-galli; conditions: post-emergence method, application rate 1000 g/ha, scale from 0 to 100
Method: The seeds of the test plants were sown separately for each species. […] For this purpose, the test plants were either sown directly and grown in the same containers, or they were first grown separately as seedlings and transplanted into the test containers a few days prior to treatment. Depending on the species, the plants were kept at 10-25° C. or 20-35° C., respectively. The test period extended over 2 to 4 weeks. During this time, the plants were tended, and their response to the individual treatments was evaluated. Evaluation was carried out using a scale from 0 to 100. 100 means no emergence of the plants, or complete destruction of at least the aerial moieties, and 0 means no damage, or normal course of growth. A good herbicidal activity is given at values of at least 70 and a very good herbicidal activity is given at values of at least 85. The plants used in the greenhouse experiments were of the following species: [table]

SMILES	herbicidal activity against ECHCG
CCc1ncc(-c2ncc(F)cc2Br)c(C(=O)O)n1 [Example 54]	very good (a very good herbicidal activity is given at values of at least 85)

same assay, conditions: post-emergence method, application rate 2000 g/ha, scale from 0 to 100

SMILES	herbicidal activity against ECHCG
COC(=O)c1nc(C2CC2)ncc1-c1ncc(F)cc1Br [Example 21]	very good (a very good herbicidal activity is given at values of at least 85)
COC(=O)c1nc(C2CC2)ncc1-c1cccnc1Br [Example 18]	very good (a very good herbicidal activity is given at values of at least 85)
O=C(O)c1nc(C2CC2)ncc1-c1ncc(F)cc1Br [Example 24]	very good (a very good herbicidal activity is given at values of at least 85)
O=C(O)c1nc(C2CC2)ncc1-c1cc(C(F)(F)F)ncc1Cl [Example 64]	good (A good herbicidal activity is given at values of at least 70)
O=C(O)c1nc(C2CC2)ncc1-c1ncccc1Br [Example 29]	very good (a very good herbicidal activity is given at values of at least 85)
O=C(O)c1nc(C2CC2)ncc1-c1nc(C(F)(F)F)ccc1F [Example 62]	very good (a very good herbicidal activity is given at values of at least 85)
O=C(O)c1nc(C2CC2)ncc1-c1ncccc1I [Example 39]	good (A good herbicidal activity is given at values of at least 70)
Cc1ccsc1-c1cnc(C2CC2)nc1C(=O)O [Example 3]	very good (a very good herbicidal activity is given at values of at least 85)

system: APESV; experiment: greenhouse experiment, pre-emergence treatment; assay type: in vivo, Apera spica-venti; conditions: pre-emergence method, application rate 2000 g/ha, scale from 0 to 100
Text: as §7

SMILES	herbicidal activity against APESV
COC(=O)c1nc(C2CC2)ncc1-c1cnccc1Br [Example 32]	very good (a very good herbicidal activity is given at values of at least 85)
COC(=O)c1nc(C2CC2)ncc1-c1ncc(F)cc1Br [Example 21]	very good (a very good herbicidal activity is given at values of at least 85)
COC(=O)c1nc(C2CC2)ncc1-c1cccnc1Br [Example 18]	very good (a very good herbicidal activity is given at values of at least 85)
O=C(O)c1nc(C2CC2)ncc1-c1ncc(F)cc1Br [Example 24]	very good (a very good herbicidal activity is given at values of at least 85)
O=C(O)c1nc(C2CC2)ncc1-c1cc(C(F)(F)F)ncc1Cl [Example 64]	very good (a very good herbicidal activity is given at values of at least 85)
O=C(O)c1nc(C2CC2)ncc1-c1ncccc1Br [Example 29]	good (A good herbicidal activity is given at values of at least 70)
O=C(O)c1nc(C2CC2)ncc1-c1nc(C(F)(F)F)ccc1F [Example 62]	very good (a very good herbicidal activity is given at values of at least 85)
O=C(O)c1nc(C2CC2)ncc1-c1ncccc1I [Example 39]	very good (a very good herbicidal activity is given at values of at least 85)
O=C(O)c1nc(C2CC2)ncc1-c1ccncc1Br [Example 38]	very good (a very good herbicidal activity is given at values of at least 85)
Cc1ccsc1-c1cnc(C2CC2)nc1C(=O)O [Example 3]	very good (a very good herbicidal activity is given at values of at least 85)

system: SETVI; experiment: greenhouse experiment, post-emergence treatment; assay type: in vivo, Setaria viridis; conditions: post-emergence method, application rate 2000 g/ha, scale from 0 to 100
Text: as §1, §2, §3, §4, §5, §6

SMILES	herbicidal activity against SETVI
COC(=O)c1nc(OC)ncc1-c1ncc(F)cc1F [Example 53]	good (A good herbicidal activity is given at values of at least 70)
CCc1ncc(-c2cccnc2Br)c(C(=O)O)n1 [Example 48]	very good (a very good herbicidal activity is given at values of at least 85)
CCc1ncc(-c2ncccc2Br)c(C(=O)O)n1 [Example 49]	very good (a very good herbicidal activity is given at values of at least 85)
